From patent US5565440A, “Methane diphosphonic acid derivative, its production process and its pharmaceutical applications” (Toray Industries, Inc., priority 1992, dated 1996)

Tested on: adjuvant arthritis
Experiment: Adjuvant Arthritis Test
Type: in vivo, Lewis female rats
Settings: 8th to 21st day; for Swelling inhibition rate with respect to control group, 14th day, Left / Swelling inhibition rate with respect to control group, 21st day, Left: left hind limb (adjuvant-injected); for Swelling inhibition rate with respect to control group, 14th day, Right / Swelling inhibition rate with respect to control group, 21st day, Right: right hind limb; for Bone destruction inhibition rate with respect to control group: soft X-ray score, 22nd day

Row | Structure (SMILES) | Swelling inhibition rate with respect to control group, 14th day, Left (20 mg/kg s.c. daily) [%] | Swelling inhibition rate with respect to control group, 21st day, Left (20 mg/kg s.c. daily) [%] | Swelling inhibition rate with respect to control group, 14th day, Right (20 mg/kg s.c. daily) [%] | Swelling inhibition rate with respect to control group, 21st day, Right (20 mg/kg s.c. daily) [%] | Bone destruction inhibition rate with respect to control group (20 mg/kg s.c. daily) [%] | Swelling inhibition rate with respect to control group, 14th day, Left (3 mg/kg s.c. daily) [%] | Swelling inhibition rate with respect to control group, 21st day, Left (3 mg/kg s.c. daily) [%] | Swelling inhibition rate with respect to control group, 14th day, Right (3 mg/kg s.c. daily) [%] | Swelling inhibition rate with respect to control group, 21st day, Right (3 mg/kg s.c. daily) [%] | Bone destruction inhibition rate with respect to control group (3 mg/kg s.c. daily) [%]
1 | CC1(C)CC(CC(O)(P(=O)(O)O)P(=O)(O)O)c2ccccc2S1 (centres unmarked) [Example 2, Monosodium 2-[4-(2,2-dimethylthiochromanyl)]-1-hydroxyethane-1,1-diphosphonate] | 59.6 | 75.3 | 8.0 | 16.5 | 80.4 |  |  |  |  | 
2 | O=P(O)(O)C(O)(CC1CCSc2ccc(Cl)cc21)P(=O)(O)O (centres unmarked) [Example 4, Monosodium 2-[4-(6-chlorothiochromanyl)]-1-hydroxyethane-1,1-diphosphonate] |  |  |  |  |  | 55.5 | 93.0 | 32.4 | 37.7 | 52.7
3 | O=P(O)(O)C(O)(CC1CCSc2ccccc21)P(=O)(O)O (centres unmarked) [Example 6, Monosodium 2-(4-thiochromanyl)-1-hydroxyethane-1,1-diphosphonate] |  |  |  |  |  | 26.1 | 62.0 | 27.2 | 35.9 | 38.5
4 | O=P(O)(O)C(O)(CC1CCSc2c(Cl)cccc21)P(=O)(O)O (centres unmarked) [Example 8] |  |  |  |  |  | 52.6 | 84.1 | 0.1 | 37.5 | 52.3
5 | CCc1cccc2c1SCCC2CC(O)(P(=O)(O)O)P(=O)(O)O (centres unmarked) [Example 10, Disodium 2-[4-(8-ethylthiochromanyl)]-1-hydroxyethane-1,1-diphosphonate] |  |  |  |  |  | 38.1 | 62.5 | 19.5 | 33.9 | 23.9
6 | COc1cccc2c1SCCC2CC(O)(P(=O)(O)O)P(=O)(O)O (centres unmarked) [Example 12] |  |  |  |  |  | 35.4 | 60.1 | 0.2 | 24.2 | 26.2
7 | CSc1cccc2c1SCCC2CC(O)(P(=O)(O)O)P(=O)(O)O (centres unmarked) [Example 14, Disodium 2-[4-(8-methylthiothiochromanyl)]-1-hydroxyethane-1,1-diphosphonate] |  |  |  |  |  | 53.9 | 80.0 | 2.9 | 31.0 | 46.9
